Several values for one entry are separate records, joined by “and”; a condition that tells them apart may be missing. Equal entries are not always repeated. Inconclusive results are not listed. Activity calls are given as the source filed them.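 Rule for the calls: active = loss of yeast growth signal with half-maximal concentration no more than ten times the top tested dose, in every run; inconclusive = runs disagree, or a weak flat curve or poor fit; inactive = inactive in every run.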

Tested on in the first assay: not listed separately
The experiment in a line: growth inhibition of yeast expressing PfHsp90, dose response, antimalarial PfHsp90 inhibitor project, S. cerevisiae, BacTiter-Glo luminescence, dry powder samples (AID 588396). The conditions noted are these: S. cerevisiae expressing PfHsp90, BacTiter-Glo ATP luminescence, 48 h; at 26 µM (top of the series).
For the molecule `Nc1c2ccccc2nc2ccccc12` (tested in a mixture with another compound), the activity change, negative = inhibition was 51.8% (inactive) and 38.4% (inactive).
Same read-out and setting: the result for `Cc1ccc(N2C(=O)C3C4C=CC(CNC(=S)Nc5cccc(Cl)c5)(O4)C3C2=O)cc1` (stereo not given) reads -41.4% (inactive).
Same read-out and setting: to `O=C1C(Cl)=C(NCCc2ccccc2)C(=O)c2ccccc21` belongs 1.42% (inactive); to `COc1ccc2c(c1)[nH]c1c(C)nccc12`, 217% (inactive).

For another assay, the system named is S. cerevisiae expressing PfHsp90, BacTiter-Glo ATP luminescence, 48 h. The assay is described as above.
Details: not given
`O=S(=O)(NC1CC2CCC1C2)c1ccc(Cl)cc1` (stereo not given): the AC50 (usually the concentration giving half of the maximal activity seen) was 3.25 µM.
Same read-out and setting: to `O=S(=O)(/C=C/c1ccccc1)NC1CCCCCCC1` belongs 6.52 µM.
Still for that read-out and setting: to `O=C(O)/C=C/c1cn(-c2ccccc2)nc1-c1cc2ccccc2o1` belongs 9.7 µM; to `CCOc1cc(S(=O)(=O)NC2CCCCCC2)ccc1F`, 7.34 µM; to `Cc1ccc(N2C(=O)C3C4C=CC(CNC(=S)Nc5ccc(F)cc5)(O4)C3C2=O)cc1` (stereo not given), 26.3 µM.
Regarding `O=C(CSCC(=O)N1CCCCC1)Nc1nc(-c2ccc(Cl)s2)cs1`, the AC50 was 14.5 µM.
The same measure, in the same setting: to `CCN(CC)c1ccc(/C=C2/SC(=O)N(C(C)C)C2=O)o1` belongs 12.2 µM; to `Cc1ccc(O)c(NC(=S)NC(=O)c2ccc(-c3ccc(Cl)cc3)o2)c1`, 6.37 µM.
Still for that read-out and setting: to `O=C1C(Cl)=C(Oc2ccccc2)C(=O)c2ccccc21` belongs 0.974 µM.
Take `COc1ccc2c(c1)C=C(C(=O)NCc1ccc(Cl)cc1)CO2`: the AC50 is 8.85 µM.
Same read-out and setting: the result for `O=S(=O)(NC1CCCCCC1)c1ccc(Br)s1` reads 1.34 µM.

The values above are taken from PubChem BioAssay AID588396 (Broad Institute, 2011).
